From patent US20240115545A1, “PHARMACEUTICAL COMPOSITION CONTAINING B-LAPACHONE AS ACTIVE INGREDIENT FOR PREVENTION OR TREATMENT OF CHOLESTATIC LIVER DISEASE” (CUROME BIOSCIENCES CO., LTD., priority 2020, published 2024)

Tests used:
[1] = tested on: DDC-induced cholestatic liver disease mice; assay: Sirius Red and Masson's trichrome staining of liver connective tissue, DDC-induced cholestatic liver disease mice; type: in vivo; details: 40 and 80 mg/kg in diet, DDC 14 days
Protocol: DDC-induced cholestatic liver disease mouse animal models were prepared according to the method of Elisa Pose et al. by using 8-week-old C57BL/6 male mice (Samtako, Korea). Briefly, cholestatic liver disease was induced by feeding a standard rodent diet supplemented with 0.1% (w/w) DDC for 7 or 14 days. The 12-hour light and dark cycle was maintained and animals were allowed to free access to water. The standard rodent diet included medium wheat, wheat, corn, and corn gluten flour, and soybean oil (14% protein). All animal related procedures were reviewed and approved by the Institutional Animal Care and Use Committee of Korea Research Institute of Bioscience and Biotechnology (KRIBB), KRIBB-AEC-20165). The tissue staining of the cholestatic liver disease animal models was measured through H&E staining (basic tissue staining), Sirius Red staining (collagen staining), and Masson's trichrome staining (collagen, cytoplasm, muscle fibers, etc.), and the tissue staining was measured by a skilled researcher. To investigate the preventive effect of β-Lapachone (BL) on cholestatic liver disease, the mice were fed a diet with 0 (DDC-vehicle), 40 mg/kg (DDC-BL40) and 80 mg/kg (DDC-BL80) 3 days before DDC treatment (total 17 days) and, after 3 days, were fed a diet with DDC (total 14 days). […]

[2] = tested on: inflammation-related genes; assay: mRNA levels of inflammatory cytokine genes in liver tissue (Example 3.3); type: in vivo, mice; details: β-lapachone with DDC in diet, 7 days
Protocol: After 8-week-old C57BL/6 male mice (Samtako, Korea) were divided into each group (=6), the mice were fed a diet with normal (vehicle), control (DDC), DDC+β-lapachone 20 mg/kg, DDC+β-lapachone 40 mg/kg, DDC+β-lapachone 80 mg/kg, DDC+β-lapachone 100 mg/kg, and positive control DDC+ursodeoxycholic acid 100 mg/kg, and DDC+obeticholic acid 30 mg/kg (total 7 days). After 7 days of treatment, the mice were sacrificed and then the blood was collected from the heart. Thereafter, the levels of alanine aminotransferase (ALT), aspartate aminotransferase (AST), alkaline phosphatase (ALP), and bilirubin, which are blood indexes, were analyzed, and shown in FIG. 4.
In the cholestatic liver disease, the inflammation in the portal vein and damage to the bile ducts in the liver occur chronically, resulting in cholestasis and liver fibrosis. The mRNA levels of inflammatory cytokine genes in the liver tissue of the cholestatic liver disease mouse animal models obtained by the same method as in Example 3.1 were measured, and shown in FIG. 6.

[3] = tested on: DDC-induced cholestatic liver disease mice; assay: Treatment effect on blood bilirubin and ALP in cholestatic liver disease-induced mice (Example 4); type: in vivo
Protocol: The treatment effect of β-lapachone in cholestatic liver disease-induced mouse animals were investigated. After 8-week-old C57BL/6 male mice (Samtako, Korea) were divided into each group (=6), each group excluding a control group was fed a diet containing 0.1% DDC for 3 days. Thereafter, the mice were fed a diet with DDC control (vehicle), DDC+β-lapachone 20 mg/kg, DDC+β-lapachone 40 mg/kg, DDC+β-lapachone 80 mg/kg, and positive control DDC+obeticholic acid 30 mg/kg for 4 days (total 7 days). After 7 days of feeding, the mice were sacrificed and then the blood was collected from the heart.

[4] = tested on: peripheral blood mononuclear cells (PBMCs); assay: IL-1β and IL-18 expression in LPS and ATP treated peripheral blood mononuclear cells; type: cell-based, mice; details: LPS 200 ng/mL and ATP, 0.5, 1, 2 μM β-lapachone, 4 hours
Protocol: Considering that inflammatory cytokines mediate the pathogenic mechanism of cholestatic liver disease, the peripheral blood mononuclear cell model was used by a modified method of Boyum et al. (1968). Peripheral blood mononuclear cells isolated from healthy 8-week-old C57BL/6 male mice (Samtako, Korea) were maintained by primary culture in RPMI-1640 medium containing 10% FBS, 2 mM glutamine, 100 U penicillin, and 0.1 mg/ml streptomycin. Stable peripheral blood mononuclear cells (PBMCs) were treated with LPS at 200 ng/mL and ATP and β-lapachone at 0, 0.5, 1, 2 μM in the medium and, after 4 hours, the expression levels of IL-1β and IL-18 were investigated, and the results are shown in FIG. 15.

[5] = 0.1% DDC 3 days, then DDC + 20, 40, 80 mg/kg in diet for 4 days, depending on the concentration

CC1(C)CCC2=C(O1)c1ccccc1C(=O)C2=O [β-lapachone]
formation of connective tissues / fibrosis progression (Sirius Red and Masson's trichrome staining) [1]: inhibited such fibrosis progression | transcriptional level of IL-1β in liver [2]: inhibited | transcriptional level of TNFα in liver [2]: inhibited | ALP in the blood increased by DDC [3, 5]: inhibited | bilirubin in the blood increased by DDC [3, 5]: inhibited | effect on bilirubin and ALP compared with positive controls ([3]; treatment after 3 days DDC, positive control obeticholic acid 30 mg/kg): excellent effect compared with ursodeoxycholic acid (UDCA) and obeticholic acid (OCA) | expression level of IL-1β increased by LPS and ATP [4]: reduced depending on the concentration | expression level of IL-18 increased by LPS and ATP [4]: reduced depending on the concentration
